Among the data in patent US4447422A, “Penicillins and compositions containing them” (Beecham Group p.1.c., priority 1981, dated 1984) are MIC values, retold here.

Values after ≈ are worked out from the molar mass of the structure shown. Structures can show the parent of a compound that is named as a salt. Where two headings read alike, the source gives them in different places. Bounds are passed on as bounds.

Assay in all cases: antibacterial activity (MIC)
Holding throughout (type): cell-based

One assay deals with Serratia marcescens US32. As to conditions: Table 1.
Another assay concerns P rettgeri. As to conditions: Table 1.
Another assay relates to Enterobacter cloacae N1. Conditions: Table 1.
In a further assay the test system is Step faecalis I. As to conditions: Table 1.
Another assay deals with E coli JT425. Conditions: Table 1.
The next assay concerns β-Haemolytic Strep CN10. Conditions: Table 1.
The test system of another assay is Staph aureus Russell. Conditions: Staphylococcus aureus, Table 1.
The subject of the next assay is N catarrhalis 1502. As to conditions: Table 1.
Another assay deals with E coli JT4. Conditions: Table 1.
In another assay the test system is Klebsiella aerogenes A. As to conditions: Table 1.
A further assay has as its system E coli NCTC 10418.
The subject of a further assay is Staph aureus Oxford.
In a further assay the test system is E coli ESS. Conditions: Table 1.
Another assay relates to P mirabilis 889. As to conditions: Table 1.
The subject of a further assay is Ps aeruginosa 10662. As to conditions: Table 1.
Another assay relates to P morganii. Conditions: Table 1.
The next assay deals with B subtilis. As to conditions: Table 1.
A further assay relates to P mirabilis C977. As to conditions: Table 1.
In another assay the test system is Ps aeruginosa Dalgleish. Conditions: Table 1; Ps aeruginosa Dalgleish 10^-2.
[1] abbreviates: Escherichia coli, NCTC10418, Table 2, gram negative organism E. coli NCTC 10418.
Setting [2] is: Staphylococcus aureus, Table 1, Staph aureus Oxford, read-out: MIC.
Setting [3] is: Table 2, gram positive organism Staph. aureus Oxford.

With `CC1(C)S[C@@H]2[C@H](NC(=O)[C@H](NC(=O)c3cnc(NCc4ccccc4)nc3O)c3ccccc3)C(=O)N2[C@H]1C(=O)O` [Example 1, 6β-[D-2-(2-benzylamino-4-hydroxypyrimidine-5-carbonylamino)-2-phenyl]acetamido penicillanic acid], the MIC against Serratia marcescens US32 was 10 µg/mL (≈ 17.3 µM); in the assay on P rettgeri, 10 µg/mL (≈ 17.3 µM); in the assay on Enterobacter cloacae N1, 10 µg/mL (≈ 17.3 µM); with Step faecalis I, 5 µg/mL (≈ 8.67 µM); against E coli JT425, 25 µg/mL (≈ 43.4 µM); against β-Haemolytic Strep CN10, below 0.02 µg/mL. Besides, the MIC is 50 µg/mL (≈ 86.7 µM) against Staph aureus Russell; below 0.02 µg/mL against N catarrhalis 1502; above 100 µg/mL against E coli JT4; 50 µg/mL (≈ 86.7 µM) against Klebsiella aerogenes A; 2.5 µg/mL (≈ 4.34 µM) against E coli NCTC 10418 (setting [1]); 2.5 µg/mL (≈ 4.34 µM) in the assay with E coli NCTC 10418 (Table 1, E coli NCTC 10418). The MIC with Staph aureus Oxford (setting [2]) was 0.5 µg/mL (≈ 0.867 µM); in the assay with Staph aureus Oxford (setting [3]), 0.5 µg/mL (≈ 0.867 µM); against E coli ESS it was below 0.02 µg/mL; against P mirabilis 889 it was above 100 µg/mL; against Ps aeruginosa 10662 (Ps aeruginosa 10662), 5 µg/mL (≈ 8.67 µM); against Ps aeruginosa 10662 (Ps aeruginosa 10662 10^-2), 2.5 µg/mL (≈ 4.34 µM). Moreover, the MIC was determined as 50 µg/mL (≈ 86.7 µM) in the assay on P morganii, 2.5 µg/mL (≈ 4.34 µM) against B subtilis, 2.5 µg/mL (≈ 4.34 µM) in the assay on P mirabilis C977 and 50 µg/mL (≈ 86.7 µM) in the assay with Ps aeruginosa Dalgleish.
In the case of `CCCCNc1ncc(C(=O)N[C@@H](C(=O)N[C@@H]2C(=O)N3[C@@H]2SC(C)(C)[C@@H]3C(=O)O)c2ccccc2)c(O)n1` [Example 16, 6β-[D-2-(2-n-Butylamino-4-hydroxypyrimidine-5-carbonylamino)-2-phenyl] acetamido penicillanic acid, disodium salt], the minimal inhibitory concentration (MIC) with Serratia marcescens US32 amounted to 12.5 µg/mL; with P rettgeri, 5 µg/mL; against Enterobacter cloacae N1, 5 µg/mL; against Step faecalis I, 5 µg/mL; with E coli JT425, 50 µg/mL; in the assay on β-Haemolytic Strep CN10 it was 0.02 µg/mL. Further, the minimal inhibitory concentration (MIC) with Staph aureus Russell was 125 µg/mL; with N catarrhalis 1502 it was 0.02 µg/mL; in the assay on E coli JT4 it was above 500 µg/mL; in the assay with Klebsiella aerogenes A it was 12.5 µg/mL; against E coli NCTC 10418 (setting [1]), 1.2 µg/mL; in the assay with E coli NCTC 10418 (Table 1, E coli NCTC 10418), 1.5 µg/mL. For the same molecule, the MIC with Staph aureus Oxford (setting [2]) was 1.2 µg/mL; against Staph aureus Oxford (setting [3]), 1.2 µg/mL; with E coli ESS it was 0.02 µg/mL; against P mirabilis 889 it was above 500 µg/mL; against Ps aeruginosa 10662 (Ps aeruginosa 10662), 5 µg/mL; against P morganii it was 5 µg/mL. The minimal inhibitory concentration (MIC) against B subtilis was determined as 1.2 µg/mL; with P mirabilis C977, 2.5 µg/mL; with Ps aeruginosa Dalgleish, 125 µg/mL.
As for `CCSCCNc1ncc(C(=O)N[C@@H](C(=O)N[C@@H]2C(=O)N3[C@@H]2SC(C)(C)[C@@H]3C(=O)O)c2ccccc2)c(O)n1` [Example 2, 6β-[D-2-(2-[2-Ethylthioethyl-1-amino]-4-hydroxypyrimidine-5-carbonylamino)-2-phenyl]acetamido penicillanic acid], the MIC with Serratia marcescens US32 is 12.5 µg/mL (≈ 21.8 µM); in the assay on P rettgeri, 12.5 µg/mL (≈ 21.8 µM); with Enterobacter cloacae N1 it was 12.5 µg/mL (≈ 21.8 µM); in the assay with Step faecalis I, 5 µg/mL (≈ 8.7 µM); with E coli JT425, 50 µg/mL (≈ 87 µM); against β-Haemolytic Strep CN10 it was below 0.01 µg/mL. Also, the minimal inhibitory concentration (MIC) in the assay on Staph aureus Russell is 125 µg/mL (≈ 218 µM); with N catarrhalis 1502, below 0.01 µg/mL; with E coli JT4, above 500 µg/mL; in the assay on Klebsiella aerogenes A, 12.5 µg/mL (≈ 21.8 µM); against E coli NCTC 10418 (setting [1]) it was 2.5 µg/mL (≈ 4.35 µM); against E coli NCTC 10418 (Table 1, E coli NCTC 10418) it was 2.5 µg/mL (≈ 4.35 µM). Further, the minimal inhibitory concentration (MIC) is 1.25 µg/mL (≈ 2.18 µM) in the assay on Staph aureus Oxford (setting [2]); 1.25 µg/mL (≈ 2.18 µM) in the assay on Staph aureus Oxford (setting [3]); below 0.01 µg/mL with E coli ESS; above 500 µg/mL against P mirabilis 889; 5 µg/mL (≈ 8.7 µM) in the assay with Ps aeruginosa 10662 (Ps aeruginosa 10662); 2.5 µg/mL (≈ 4.35 µM) with Ps aeruginosa 10662 (Ps aeruginosa 10662 10^-2). Moreover, the minimal inhibitory concentration (MIC) was determined as 25 µg/mL (≈ 43.5 µM) against P morganii, 1.25 µg/mL (≈ 2.18 µM) against B subtilis, 2.5 µg/mL (≈ 4.35 µM) against P mirabilis C977 and 125 µg/mL (≈ 218 µM) with Ps aeruginosa Dalgleish.
